Measured values from patent US20100266618A1, “COMPOSITIONS AND METHODS FOR AUGMENTING ACTIVITY OF ONCOLYTIC VIRUSES” (priority 2009, published 2010).

Experiments:
EMT6 breast cancer line = assay: In vitro cytotoxicity assay with small molecule followed by Maraba virus infection; conditions: 50 uM for 48 h prior to Maraba virus infection
Method: In vitro cytotoxicity assays with small molecules: Cells were seeded onto 96 well plates to a confluence of ˜50%. The following day, siRNA transfections were performed, or small-molecule IRE1α inhibition was initiated. For the small-molecules, DMSO was used as a vehicle with a [drug]=20-50 μM. Drug treatment occurred for either 4 h (“acute” treatment), or was re-applied at 24 h and left for 48 h total (“chronic” treatment). Following knockdown or chemical inhibition, the cells were infected at log dilutions with the indicated rhabdoviruses. After 48-72 h of infection (depending on the cell line), Resazurin sodium salt was added to a final concentration of 20 μg/ml. After a 6 h incubation the absorbance was read at a wavelength of 573 nm.

EMT6 tumours = assay: EMT6 syngeneic breast cancer model, bioluminescent imaging and survival; format: in vivo, Balb/c mice
Method: EMT6 syngeneic breast cancer models: Murine EMT6 breast cancer-derived cells (1×10^5 per mouse) were adapted for bioluminescent imaging and injected into the fat pad of the right lower breast in 6-8 week old Balb/c mice. Mice developed palpable tumours by 5-7 days, which grew rapidly. At 7 days post-tumour implants, mice were treated with Compound 2 (250 mg/kg, IP) or vehicle, twice daily, for six days. Maraba-DM (1×10^7 pfu per cell) or PBS was injected IV (tail vein) on day 10, 11, 13, 16, and 17. Animals were monitored daily for piloerection, weight loss, morbidity, hind leg paralysis and respiratory distress. Tumour images were captured twice weekly using a Xenogen 200 IVIS system (Caliper LS, USA), and total luminescent flux was analyzed on computerized software (Xenogen). Mice were euthanized when the total flux exceeded 1×10^7, which corresponded to a tumour burden of ˜500 mm^3 and occurred between 14-17 days in untreated animals.

[1] = Maximum tolerable dose (MTD) study; format: in vivo; conditions: single IP injection, CD-1 nude mice
Method: (§1) Maximum tolerable dose (MTD) and pharmacokinetic (PK) studies in mice: For MTD studies, groups of three CD-1 nude mice (6-8 weeks old) were given a single intraperitoneal (IP) injection of Compound 2 (in log 2 increments, diluted in 10% Tween-80) ranging from […]-1000 mg/Kg. The animals were monitored twice daily for signs of distress, including weight loss, morbidity, and respiratory distress. For PK studies, groups of three CD-1 nude mice (6-8 weeks old) were given a single IP injection of Compound 2 (250 mg/Kg), and blood was taken from the saphenous vein at the indicated timepoints. The blood was centrifuged at 3,000 rpm for 10 min, and plasma collected and frozen (−80 deg C.). Plasma samples were analyzed for Compound 2 using LC-MS. To 10 μL plasma, 20 μL acetonitrile was added, vortexed briefly and centrifuged at 14,000 rpm for 10 min. The clear supernatant was transferred in to a vial for LC-MS analysis. Chromatographic separations were carried out on an Acquity UPLC BEH C18 (2.1×50 mm, […]) column using ACQUITY UPLC system. The mobile phase was 0.1% formic acid in water (solvent A) and 0.1% formic acid in acetonitrile (solvent B). A gradient starting at 95% solvent A going to 5% in 4.5 min, holding for 0.5 min, going back to 95% in 0.5 min and equilibrating the column for 1 min was employed. […]

[2] = Pharmacokinetic (PK) study, plasma LC-MS; format: in vivo; conditions: CD-1 nude mice
Method: as §1

OVCAR-4 xenograft = assay: Ovarian xenograft model, bioluminescent imaging; format: in vivo, CD-1 nude mice
Method: Ovarian xenograft model: Human ovarian carcinoma-derived OVCAR-4 cells, adapted for bioluminescent imaging, were injected into 6-8 week old athymic CD-1 nude mice (IP injection, 5×10^6 cells per mouse). Untreated animals develop measurable abdominal tumours (assessed by IVIS imaging) by 4-7 days, become icteric by 3-4 months and must be euthanized shortly thereafter due to systemic disease as characterized by enlarged cancerous liver and spleen, pale kidneys, and cancerous lymph nodes on the abdominal mesentery. For efficacy experiments, Compound 2 (250 mg/kg; or vehicle (10% Tween-80)) was administered twice daily (IP injections), beginning on day 14 and ending on day 19. Maraba-DM (1×10^5 pfu per cell) or PBS was injected IV (tail vein) on day 16, 17, 19, 23, 25, 27. Animals were monitored daily for weight loss, morbidity, hind leg paralysis and respiratory distress. Tumour images were captured twice weekly with a Xenogen 200 IVIS system (Caliper LS, USA), and total luminescent flux was analyzed on computerized software (Xenogen).

U373 and OVCAR8 cells = format: cell-based, human

COc1cc(-c2cccc(C(N)=O)c2)cc(C=O)c1O [Compound 2, 3′-formyl-4′-hydroxy-5′-methoxy-[1,1′-biphenyl]-3-carboxamide]
sensitization to oncolytic virus killing (EMT6 breast cancer line): significantly sensitized to oncolytic virus killing
tumour burden (EMT6 tumours; combination with Maraba virus, 250 mg/Kg IP twice daily for 6 days): significantly reduced tumour burden
tumour growth after drug treatment was stopped (EMT6 tumours; combination, virus dosing continued): tumour re-growth occurred even in the presence of continued virus dosing
tumour growth (EMT6 tumours; single agent): neither drug nor virus had an appreciable effect on tumour growth
efficacy (survival) with extended treatment (EMT6 tumours; treatment extended to more than 12 days in combination with virus): continued to increase efficacy
tolerated single dose [1]: up to 1000 mg/Kg
bio-distribution [2]: efficient bio-distribution to the extravascular tissues
half-life ([2]; mouse, plasma, intraperitoneal, 250 mg/Kg): > 6 h
duration of reduced tumour burden (OVCAR-4 xenograft; combination with Maraba-DM): > 30 days
tumour burden (OVCAR-4 xenograft; combination with Maraba-DM, Compound 2 250 mg/kg IP twice daily): dramatically reduced tumour burden
tumour growth (OVCAR-4 xenograft; single agent): rapid re-growth occurred after an early period of tumour regression

tunicamycin [reference compound]
eIF2alpha phosphorylation (U373 and OVCAR8 cells): inducing elF2alpha phosphorylation
